Literature values as cited in patent US20240158516A1, “METHODS FOR THE TREATMENT OF THYROID EYE DISEASE” (Horizon Therapeutics Ireland DAC, priority 2021, published 2024).
Like-named read-outs stand apart in the source and are kept apart here.

Tests used:
IGF-1 R = IGF-1 R (Homo sapiens, UniProt P08069); settings: cited from earlier work
[1] = cited from earlier work
tumor = settings: in vivo; cited from earlier work
IGF-IR [2] = molecular target: T1, IGF-IR (Homo sapiens, UniProt P08069); settings: cited from earlier work
IGF-IR [3] = molecular target: T1, IGF-IR; settings: cited from earlier work; remark: listed apart in the source
[4] = cited from earlier work; remark: listed apart in the source
[5] = system: patients with moderate-to-severe active TED; settings: cited from earlier work
patients with GO (TED) = settings: vs. 0.15 mm in the placebo group; cited from earlier work

T1 sequence (P08069 31-1367): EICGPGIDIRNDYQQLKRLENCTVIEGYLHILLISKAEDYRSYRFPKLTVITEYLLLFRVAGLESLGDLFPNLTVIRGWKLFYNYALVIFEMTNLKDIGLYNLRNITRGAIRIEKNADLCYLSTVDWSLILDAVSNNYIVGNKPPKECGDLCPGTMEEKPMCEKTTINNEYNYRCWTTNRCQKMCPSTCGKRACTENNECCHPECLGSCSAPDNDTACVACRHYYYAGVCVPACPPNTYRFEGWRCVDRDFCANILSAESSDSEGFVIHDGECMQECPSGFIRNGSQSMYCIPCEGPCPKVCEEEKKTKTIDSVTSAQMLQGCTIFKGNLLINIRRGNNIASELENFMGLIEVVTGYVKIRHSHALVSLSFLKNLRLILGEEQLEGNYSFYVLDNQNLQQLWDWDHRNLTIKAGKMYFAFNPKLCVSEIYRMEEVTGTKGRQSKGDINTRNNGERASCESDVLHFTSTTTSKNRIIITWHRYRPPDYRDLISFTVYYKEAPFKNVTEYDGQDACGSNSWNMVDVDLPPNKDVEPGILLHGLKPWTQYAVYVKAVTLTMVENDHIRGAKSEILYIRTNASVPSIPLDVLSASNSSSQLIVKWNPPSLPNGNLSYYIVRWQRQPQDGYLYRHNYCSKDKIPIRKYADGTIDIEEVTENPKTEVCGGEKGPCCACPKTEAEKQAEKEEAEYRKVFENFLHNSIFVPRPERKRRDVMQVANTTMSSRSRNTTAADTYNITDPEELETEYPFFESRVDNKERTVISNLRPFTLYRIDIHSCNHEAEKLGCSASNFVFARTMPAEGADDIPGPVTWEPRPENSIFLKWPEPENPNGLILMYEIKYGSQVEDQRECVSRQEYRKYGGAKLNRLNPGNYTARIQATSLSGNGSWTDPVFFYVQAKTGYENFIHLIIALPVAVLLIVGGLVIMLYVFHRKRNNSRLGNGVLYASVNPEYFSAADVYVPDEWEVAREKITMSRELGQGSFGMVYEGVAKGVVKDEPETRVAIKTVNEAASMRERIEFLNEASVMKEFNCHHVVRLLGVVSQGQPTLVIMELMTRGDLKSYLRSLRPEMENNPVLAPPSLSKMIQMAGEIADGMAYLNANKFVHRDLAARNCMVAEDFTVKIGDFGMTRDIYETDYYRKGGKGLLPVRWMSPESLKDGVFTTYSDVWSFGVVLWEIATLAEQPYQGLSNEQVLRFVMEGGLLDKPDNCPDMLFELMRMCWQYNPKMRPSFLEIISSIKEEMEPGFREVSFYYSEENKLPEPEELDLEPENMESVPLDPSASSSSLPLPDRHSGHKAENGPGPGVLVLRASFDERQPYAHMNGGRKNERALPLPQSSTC
IGF-1 R, sequence (P08069 31-1367): as above

COc1cc(N2CCC(N)CC2)ccc1Nc1ncc(Cl)c(-c2c[nH]c3ccccc23)n1 [AZD3463]
inhibition of IGF-1 R (IGF-1 R): potent ALK/IGF-1 R inhibitor

COCCN1CCN(CCn2ccc(Nc3ncc4c(n3)[C@@H](C)Cc3nn(C)c(-c5ccccc5)c3-4)n2)CC1 [BI885578]
in vivo half-life ([1]; as a result of rapid metabolic clearance): short
intestinal absorption ([1]; in vivo): rapid
metabolic clearance ([1]; in vivo): rapid

N#CCc1cnc(-c2ccc3ccccc3n2)n1-c1ccnc(NC2CCCNC2)n1 (stereo not shown) [BI893923]
anti-tumor efficacy (tumor): anti-tumor efficacy
tolerability (tumor): good

Nc1ncnc2c1c(-c1ccc3[nH]c(Cc4ccccc4Cl)nc3c1)nn2[C@H]1CC[C@H](N2CCOCC2)CC1 [Example A-928605]
inhibition of intracellular IGF-IR phosphorylation (IGF-IR [2]): potent inhibitor
inhibition of IGF-IR on the purified enzyme (IGF-IR [3]): potent inhibitor

C[C@]1(O)C[C@@H](c2nc(-c3ccc4ccc(-c5ccccc5)nc4c3)c3c(N)nccn32)C1 [Linsitinib]
T1/2 ([4]; oral): oral; 2-4 hrs

CN1CCC(Nc2cc(Cl)cc3c(S(=O)(=O)N4CCO[C@H](COc5ccccc5)C4)c(C(N)=O)[nH]c23)CC1 [PL-225B]
T1/2 ([4]; oral): Oral; 21d
inhibition of IGF-1 R (IGF-1 R): selectively inhibits IGF-1 R

Cixutumumab: IGF-1R inhibitor antibody; HC SEQ ID NO:55, LC SEQ ID NO:56
T1/2 ([4]; IV): IV; 5 days

Dalotuzumab: IGF-1R inhibitor antibody; HC SEQ ID NO:7, LC SEQ ID NO:8
T1/2 ([4]; in vivo, iv): IV;5 days

rituximab: a CD20+ B cell-depleting agent
reduction in proptosis compared with the ivGC results ([5]; compared with 0.6 mm mean reduction under ivGCs): not different
effects of rituximab versus placebo ([5]; first trial, 2015 monocenter RCT): negative
effects of rituximab versus ivGCs ([5]; second trial, 2015 monocenter RCT): positive

teprotumumab: fully human IGF-IR-inhibitory monoclonal antibody approved for TED; VH SEQ ID NO:90, VL SEQ ID NO:91
T1/2 ([4]; IV): IV; 8 days
exophthalmos decreased by an average of (patients with GO (TED)): 2.46 mm

B1: Figitumumab: IGF-1R inhibitor antibody; HC SEQ ID NO:39, LC SEQ ID NO:40 (antibody)
heavy: EVQLLESGGGLVQPGGSLRLSCTASGFTFSSYAMNWVRQAPGKGLEWVSAISGSGGTTFYADSVKGRFTISRDNSRTTLYLQMNSLRAEDTAVYYCAKDLGWSDSYYYYYGMDVWGQGTTVTVSSASTKGPSVFPLAPCSRSTSESTAALGCLVKDYFPEPVTVSWNSGALTSGVHTFPAVLQSSGLYSLSSVVTVPSSNFGTQTYTCNVDHKPSNTKVDKTVERKCCVECPPCPAPPVAGPSVFLFPPKPKDTLMISRTPEVTCVVVDVSHEDPEVQFNWYVDGVEVHNAKTKPREEQFNSTFRVVSVLTVVHQDWLNGKEYKCKVSNKGLPAPIEKTISKTKGQPREPQVYTLPPSREEMTKNQVSLTCLVKGFYPSDIAVEWESNGQPENNYKTTPPMLDSDGSFFLYSKLTVDKSRWQQGNVFSCSVMHEALHNHYTQKSLSLSPGK
light: DIQMTQFPSSLSASVGDRVTITCRASQGIRNDLGWYQQKPGKAPKRLIYAASRLHRGVPSRFSGSGSGTEFTLTISSLQPEDFATYYCLQHNSYPCSFGQGTKLEIKRTVAAPSVFIFPPSDEQLKSGTASVVCLLNNFYPREAKVQWKVDNALQSGNSQESVTEQDSKDSTYSLSSTLTLSKADYEKHKVYACEVTHQGLSSPVTKSFNRGEC
modifications: Figitumumab Heavy Chain (HC); Figitumumab Light Chain (LC)
T1/2 ([4]; IV): IV; 20 days
